Entries after “also recorded” stand apart in the source; their conditions may differ.

As usually defined, the AUC(0-inf) is the area under the concentration-time curve extrapolated to infinity. A word on the Cmax: it is the maximum level reached in the sampled fluid or tissue.

The conditions of data set [1]: cited from earlier work.
For data set [2] the following is noted: humans, no p-gp inhibitor; cited from earlier work.
The subject of data set [3] is CACO-2 (colon carcinoma) cells. The note with it: cultured CACO-2 cells; cited from earlier work.
For data set [4] the following is noted: in vivo; cited from earlier work.
For the next data set, the system named is Caco-2 cell monolayers. Description: Azithromycin transport across Caco-2 cell monolayers, with and without P-glycoprotein inhibitors. The format is in vitro ADME. As for the experimental part: Caco-2 cell monolayers were grown on permeable transwell-col filter supports (24.5 mm diameter, 0.45 μm pore size) and used in these studies at day 21-24. 2 mls of 0.4 μM ^14C Azithromycin in Hank's balanced salt solution (HBSS) was added to the donor chamber and 2 mls of HBSS was added to the acceptor chamber. An impermeable marker, ^3H Mannitol, was included in these studies to ensure the monolayers were intact. […] Transport was monitored in the apical to basolateral (absorptive) and basolateral to apical (secretory) direction. The wells were incubated for 1 hour (unstirred) at 37° C. Samples were removed after the incubation period and analyzed by dual label LSC. The transport was calculated as percent flux/hr. [formula]
Transport measurements were made in controls, implemented in like fashion except no test compound was included.
On the technique in general: Caco-2 cells form a polarised layer with tight junctions and transporters.

For data set [5] the following is noted: dog, intravenous radiolabeled dose; cited from earlier work.
For data set [6] the following is noted: in vivo; cited from earlier work. This is another data set of the same source.
Data set [7] in a line: Effect of nelfinavir on the pharmacokinetics of a single oral dose of azithromycin (crossover study). The note with it: co-administration with nelfinavir vs azithromycin alone.
Method: (§1) Healthy volunteers received nelfinavir for 11 days. On Day 9 a single dose of azithromycin was administered. Each subject also received a single control dose of 1200 mg azithromycin either two weeks before the start of a nelfinavir treatment regimen or three weeks after a nelfinavir treatment regimen.
(§2) Nelfinavir was administered as 3 commercial 250 mg tablets, 3 times per day (morning dose at approximately 7 am; afternoon dose at approximately 3 pm; evening dose at approximately 10 pm) with food for 11 days. On day 9, azithromycin (1200 mg) was dosed as 2 600 mg commercial tablets at the same time as the morning dose of nelfinavir. On day 9 the subjects, who were previously fasted for at least 8 hr, consumed a standard breakfast consisting of cereal and/or toast with butter and jelly, and milk. Immediately following the standard breakfast, the subjects consumed 750 mg nelfinavir and 1200 mg azithromycin, with 120 ml water. On the day on which azithromycin alone was dosed, 2 600 mg commercial tablets were dosed with 120 ml water, immediately following the standard breakfast.
(§3) Serum samples were assayed for azithromycin utilizing LC/MS/MS. […] Concentrations below the lower limits of quantification were utilized as 0.00 μg/ml in the calculations.
(§4) Maximum observed azithromycin concentrations (Cmax) were determined by inspection of the data. Tmax was defined as the time of first occurrence of Cmax. […] Area under the serum concentration versus time curves (AUClast) were calculated for the interval of pre-dose to the last time at which concentrations of azithromycin were measurable. Total exposure was estimated as AUC for the interval of pre-dose to infinity. AUC=AUClast+C*last/kei, where C*last is the concentration estimated from the aforementioned regression at the time of the last quantifiable concentration of drug.
(§5) Geometric mean values of Cmax, AUC, Cmax ratios, and AUC ratios were determined. Arithmetic means of other parameters were determined.
The nature of another data set: clinical. The note with it: human, serum, po, 1200 mg.

Method for clinical: as §1, §2, §3, §4, §5

In the case of `CC[C@H]1OC(=O)[C@H](C)[C@@H](O[C@H]2C[C@@](C)(OC)[C@@H](O)[C@H](C)O2)[C@H](C)[C@@H](O[C@@H]2O[C@H](C)C[C@H](N(C)C)[C@H]2O)[C@](C)(O)C[C@@H](C)CN(C)[C@H](C)[C@@H](O)[C@]1(C)O` [Azithromycin, 9a-aza-9a-methyl-9deoxo-9a-homoerythromycin A], the “effect on midazolam plasma levels” value in [1] (co-dosed with midazolam (Zimmerman et al.; Backman et al.)) is reported as “no effect; also recorded: did not increase”. Also, the oral bioavailability in [2] was 37%. Moreover, the “basolateral-to-apical azithromycin flux versus apical-to-basolateral flux” value in data set [3] was “exceeded”. Besides, in data set [4], the “interaction with (effect on plasma levels of) HIV protease inhibitors saquinavir, ritonavir, indinavir, nelfinavir” value is “does not interact”. Also, the “substrate for the P-glycoprotein efflux transporter” value in the data set on Caco-2 cell monolayers (Caco-2) is “is a substrate”. Further, in the data set on Caco-2 cell monolayers (human, Caco-2, 1 h, 0.4 μM), the “% Flux/hr B-A” value is recorded as 6.6 % flux/hr and the “% flux/hr A-B” value came out at 0.1 % flux/hr. Also, the “recovered radiolabel eliminated across the intestinal wall” value in [5] is on record as 40%. Moreover, the elimination half-life in data set [6] is 69 h. In [7] (p=0.0001), the “increase of mean AUC0-∞ for azithromycin” value is recorded as 112%. The “increase of mean Cmax” value in data set [7] (p=0.0003) worked out at 137%. In “clinical”, this compound returned an AUC(0-inf) of 11500 ng·h/mL and a peak concentration (Cmax) of 889 ng/mL.
For the compound `CC[C@H]1OC(=O)[C@H](C)[C@@H](O[C@H]2C[C@@](C)(OC)[C@@H](O)[C@H](C)O2)[C@H](C)[C@@H](O[C@@H]2O[C@H](C)C[C@H](N(C)C)[C@H]2O)[C@](C)(OC)C[C@@H](C)C(=O)[C@H](C)[C@@H](O)[C@]1(C)O` [clarithromycin], the “interaction with (effect on plasma levels of) HIV protease inhibitors saquinavir, ritonavir, indinavir, nelfinavir” value in data set [4] is “exhibit an interaction with all but nelfinavir”.
For the compound `CC[C@H]1OC(=O)[C@H](C)[C@@H](O[C@H]2C[C@@](C)(OC)[C@@H](O)[C@H](C)O2)[C@H](C)[C@@H](O[C@@H]2O[C@H](C)C[C@H](N(C)C)[C@H]2O)[C@](C)(O)C[C@@H](C)C(=O)[C@H](C)[C@@H](O)[C@]1(C)O` [erythromycin], in [1] (midazolam co-dosed with erythromycin (Zimmerman et al.)), the “increase in midazolam AUC” value is given as 380%.
